The values below come from patent publication US20250084138A1, “POLYPEPTIDE HAVING EFFECT OF INHIBITING PROLIFERATION OF LEUKEMIA CELLS” (NANJING FENGRUI BIOTECHNOLOGY CO., LTD, priority 2019, published 2025).

Peptide text beside a SMILES is read from it. * marks the point of attachment. Myristoyl = CCCCCCCCCCCCCC(=O)*

The test system of assay [1] is Baf-3 cells of normal mouse hematopoietic cells (mIL-3 dependent). Particulars: Baf-3 normal mouse hematopoietic cells.
Assay [2] concerns THP-1 cells of acute myeloid leukemia cell line (AML). Nature of the assay: Thp-1 cells co-incubated with the polypeptide, cell counting. In kind it is cell-based. On the procedure: (§1) The selected experimental cells were: • K562 cells of human chronic myeloid leukemia cell line (CML); • Jurkat cells of acute T lymphocyte leukemia cell line (T-ALL); • THP-1 cells of acute myeloid leukemia cell line (AML); • Baf-3 cells of normal mouse hematopoietic cells (mIL-3 dependent).
(§2) This experiment was grouped into a normal control group, a polypeptide control group, and an experimental polypeptide group.
(§3) Firstly, the polypeptide of the present disclosure was co-incubated with 5*103 (marked as the third power of 10) leukemia tumor cells for 38 h, and the proliferation speed of the cells was detected by two methods of detecting proliferation of the cells (CCK-8) and cell counting, so as to observe the inhibitory effect of the polypeptide on the tumor cells.
(§4) Secondly, the polypeptide was co-incubated with the cells for 24 h, and then collected again, counted, and cultured with drug addition for 38 h, and then detected for the proliferation rate of the cells (CCK-8).
(§5) Each group included one blank (Control), one control peptide (C-p), and three target peptides (P-t, taking an average as the result)

The test system of assay [3] is Baf-3 cells of normal mouse hematopoietic cells (mIL-3 dependent). Nature of the assay: Baf-3 normal cells co-incubated with the polypeptide, cell counting. Format: cell-based. On the procedure:
as §1, §2, §3, §4
Thirdly, we used normal mouse hematopoietic cells to carry out the same experiment as the above to observe the effect of the polypeptide on normal cells.
as §5

The test system of assay [4] is K562 cells of human chronic myeloid leukemia cell line (CML). Briefly: K562 cells co-incubated with the polypeptide, cell counting. In kind it is cell-based. On the procedure:
as §1, §2, §3, §4, §5

The test system of assay [5] is Jurkat cells of acute T lymphocyte leukemia cell line (T-ALL). Briefly: Jurkat cells co-incubated with the polypeptide, cell counting. In kind it is cell-based. On the procedure: as §1, §2, §3, §4, §5
The next assay relates to various leukemia cells. Briefly: Overall conclusion on proliferation of the three leukemia cell lines. In kind it is cell-based. The conditions noted are these: K562, Jurkat, THP-1; positive correlation with dosage and times of administration. On the procedure: as §1, §3, §4
The leukemia subtypes represented by the aforementioned three leukemia cells have covered more than 70% of the number of leukemia patients.

`CCCCCCCCCCCCCC(=O)N[C@@H](CCCCN)C(=O)N[C@@H](CCC(=O)O)C(=O)N[C@@H](CO)C(=O)N[C@@H](CCSC)C(=O)N[C@@H](CC(=O)O)C(=O)N[C@@H](C)C(=O)N[C@@H](CC(N)=O)C(=O)N[C@@H](CCCCN)C(=O)N1CCC[C@H]1C(=O)N[C@H](C(=O)N[C@@H](CCCCN)C(=O)N[C@@H](CC(N)=O)C(=O)N[C@@H](CC(C)C)C(=O)N1CCC[C@H]1C(=O)N[C@@H](CC(C)C)C(=O)N[C@@H](CCCCN)C(=O)N[C@@H](CCCCN)C(=O)N[C@H](C(=O)N1CCC[C@H]1C(=O)N[C@@H](CS)C(=O)N[C@@H](CCCCN)C(=O)N[C@H](C(=O)N[C@@H](CO)C(=O)N[C@@H](C)C(=O)N1CCC[C@H]1C(=O)N[C@@H](CO)C(=O)N[C@@H](CCC(N)=O)C(=O)N[C@@H](CO)C(=O)N[C@@H](Cc1ccccc1)C(=O)N[C@@H](Cc1ccccc1)C(=O)N[C@@H](C)C(=O)N[C@@H](CCCNC(=N)N)C(=O)N[C@@H](CC(=O)O)C(=O)N[C@@H](CC(N)=O)C(=O)N[C@H](C(=O)N[C@@H](C)C(=O)N[C@@H](CC(N)=O)C(=O)O)[C@@H](C)O)[C@@H](C)O)[C@@H](C)CC)[C@@H](C)O` [P-t] (Myristoyl-KESMDANKPTKNLPLKKIPCKTSAPSQSFFARDNTAN-OH): in assay [1], the “inhibitory effect on the proliferation of normal cells” value was “no inhibitory effect”. In addition, the Cell count was 80.56% in assay [2] (Thp-1, 10 uM, 38 h, first experiment); 63.75% in assay [2] (Thp-1, 15 uM, 24 + 38 h, first experiment); 68.22% in assay [2] (Thp-1, 15 uM, 24 + 38 h, second experiment); 63.17 ± 2.50% in assay [2] (Thp-1, 15 uM, 38 h, first experiment); 70.09% in assay [2] (Thp-1, 15 uM, 38 h, second experiment); 100.11% in assay [3] (Baf-3, 10 uM, 24 + 38 h, first experiment). Besides, the Cell count is 99.98% in assay [3] (Baf-3, 10 uM, 38 h, first experiment); 100.83% in assay [3] (Baf-3, 15 uM, 24 + 38 h, second experiment); 100.41% in assay [3] (Baf-3, 15 uM, 38 h, second experiment); 66.95% in assay [4] (K562, 10 uM, 24 + 38 h, first experiment); 90.22 ± 28.17% in assay [4] (K562, 10 uM, 38 h, first experiment); 70.09% in assay [4] (K562, 15 uM, 24 + 38 h, second experiment). The Cell count was 69.55% in assay [4] (K562, 15 uM, 38 h, first experiment); 80.00% in assay [4] (K562, 15 uM, 38 h, second experiment); 106% in assay [5] (10 uM, 38 h, first experiment); 70.09 ± 18.75% in assay [5] (15 uM, 24 + 38 h, first experiment); 65.12% in assay [5] (15 uM, 24 + 38 h, second experiment); 69.55 ± 8.35 % in assay [5] (15 uM, 38 h, first experiment). In assay [5] (15 uM, 38 h, second experiment), the Cell count was found to be 73.17%. In addition, the “inhibition of the proliferation of various leukemia cells” value in the assay on various leukemia cells was “obviously inhibit”.
